# Assay results from ChEMBL document CHEMBL1201862, “PubChem BioAssay data set” (2004).
#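 Briefly, cells in 96-well plates were exposed to five compound concentrations for 48 h, and endpoints were estimated by linear interpolation. GI50 = concentration required for 50% inhibition of growth.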 Calls of active or inactive are those of the source. No stated cut-off is given here; in the data, active = GI50 up to about 1.1 µM and inactive = higher.
# Experiments:
# Assay in all cases: DTP human tumour cell line panel, 48 h
# TK-10 = tested on: TK-10
# MOLT-4 = tested on: MOLT-4
# HT-29 = tested on: HT-29
# RXF 393 = tested on: RXF 393
# SN12C = tested on: SN12C
# OVCAR-5 = tested on: OVCAR-5
# LXFL 529 = tested on: LXFL 529
# DMS-273 = tested on: DMS-273
# SW-620 = tested on: SW-620
# RXF 631 = tested on: RXF 631
# NCI-H23 = tested on: NCI-H23
# SK-OV-3 = tested on: SK-OV-3
# RPMI-8226 = tested on: RPMI-8226
# HL-60 = tested on: HL-60
# ACHN = tested on: ACHN
# NCI-H460 = tested on: NCI-H460
# SR = tested on: SR
# UACC-62 = tested on: UACC-62
# SF-295 = tested on: SF-295
# SK-MEL-2 = tested on: SK-MEL-2
# HCT-15 = tested on: HCT-15
# UO-31 = tested on: UO-31
# 786-0 = tested on: 786-0
# NCI-H226 = tested on: NCI-H226
# SF-268 = tested on: SF-268
# SNB-78 = tested on: SNB-78
# KM-20L2 = tested on: KM-20L2
# XF498 = tested on: XF498
# M19-MEL = tested on: M19-MEL
# DLD-1 = tested on: DLD-1
# COLO 205 = tested on: COLO 205
# OVCAR-3 = tested on: OVCAR-3
# CCRF-CEM = tested on: CCRF-CEM
# OVCAR-8 = tested on: OVCAR-8
# HOP-62 = tested on: HOP-62
# UACC-257 = tested on: UACC-257
# U-251 = tested on: U-251
# LOX IMVI = tested on: LOX IMVI
# HOP-92 = tested on: HOP-92
# Malme-3M = tested on: Malme-3M
# SK-MEL-28 = tested on: SK-MEL-28
# SNB-19 = tested on: SNB-19
# HCT-116 = tested on: HCT-116
# SF-539 = tested on: SF-539
# HOP-18 = tested on: HOP-18
# SNB-75 = tested on: SNB-75
# EKVX = tested on: EKVX
# HCC 2998 = tested on: HCC 2998
# A549 = tested on: A549
# MCF7 = tested on: MCF7
# M14 = tested on: M14
# NCI/ADR-RES = tested on: NCI/ADR-RES
# NCI-H522 = tested on: NCI-H522
# BT-549 = tested on: BT-549
# Hs-578T = tested on: Hs-578T
# MDA-MB-231 = tested on: MDA-MB-231
# DMS-114 = tested on: DMS-114
# DU-145 = tested on: DU-145
# T47D = tested on: T47D
# MDA-N = tested on: MDA-N
# MDA-MB-435 = tested on: MDA-MB-435
# SK-MEL-5 = tested on: SK-MEL-5
# A498 = tested on: A498
# PC-3 = tested on: PC-3
# OVCAR-4 = tested on: OVCAR-4
# IGROV-1 = tested on: IGROV-1
# K562 = tested on: K562
# CAKI-1 = tested on: CAKI-1
# KM12 = tested on: KM12
structure (smiles),measurement,setting,value
COc1cc(Nc2cnc3cc(C(F)(F)F)ccc3n2)cc(OC)c1OC,GI50,TK-10,> 100 µM (inactive)
same,GI50,MOLT-4,> 100 µM (inactive)
same,GI50,HT-29,> 100 µM (inactive)
same,GI50,RXF 393,> 100 µM (inactive)
same,GI50,SN12C,> 100 µM (inactive)
same,GI50,OVCAR-5,> 100 µM (inactive)
same,GI50,LXFL 529,> 100 µM (inactive)
same,GI50,DMS-273,> 100 µM (inactive)
same,GI50,SW-620,> 100 µM (inactive)
same,GI50,RXF 631,> 100 µM (inactive)
same,GI50,NCI-H23,> 100 µM (inactive)
same,GI50,SK-OV-3,> 100 µM (inactive)
same,GI50,RPMI-8226,> 100 µM (inactive)
same,GI50,HL-60,> 100 µM (inactive)
same,GI50,ACHN,> 100 µM (inactive)
same,GI50,NCI-H460,> 100 µM (inactive)
same,GI50,SR,> 100 µM (inactive)
same,GI50,UACC-62,> 100 µM (inactive)
same,GI50,SF-295,> 100 µM (inactive)
same,GI50,SK-MEL-2,> 100 µM (inactive)
same,GI50,HCT-15,> 100 µM
same,GI50,UO-31,> 100 µM (inactive)
same,GI50,786-0,> 100 µM (inactive)
same,GI50,NCI-H226,> 100 µM (inactive)
same,GI50,SF-268,> 100 µM (inactive)
same,GI50,SNB-78,> 100 µM (inactive)
same,GI50,KM-20L2,> 100 µM (inactive)
same,GI50,XF498,> 100 µM (inactive)
same,GI50,M19-MEL,> 100 µM (inactive)
same,GI50,DLD-1,> 100 µM (inactive)
same,GI50,COLO 205,> 100 µM (inactive)
same,GI50,OVCAR-3,> 100 µM (inactive)
same,GI50,CCRF-CEM,> 100 µM (inactive)
same,GI50,OVCAR-8,> 100 µM (inactive)
same,GI50,HOP-62,> 100 µM (inactive)
same,GI50,UACC-257,> 100 µM (inactive)
same,GI50,U-251,> 100 µM (inactive)
same,GI50,LOX IMVI,> 100 µM (inactive)
same,GI50,HOP-92,> 100 µM (inactive)
same,GI50,Malme-3M,> 100 µM (inactive)
same,GI50,SK-MEL-28,> 100 µM (inactive)
same,GI50,SNB-19,> 100 µM (inactive)
same,GI50,HCT-116,> 100 µM (inactive)
same,GI50,SF-539,> 100 µM (inactive)
same,GI50,HOP-18,> 100 µM (inactive)
same,GI50,SNB-75,> 100 µM (inactive)
same,GI50,EKVX,> 100 µM (inactive)
same,GI50,HCC 2998,> 100 µM (inactive)
same,GI50,A549,> 100 µM (inactive)
CC12OOC(c3ccccc31)c1c2ccc2ccccc12 (configuration not stated),GI50,TK-10,9.68 µM (inactive)
same,GI50,MOLT-4,1.6 µM (inactive)
same,GI50,MCF7,13.2 µM (inactive)
same,GI50,HT-29,2.62 µM (inactive)
same,GI50,RXF 393,1.18 µM (inactive)
same,GI50,SN12C,15.8 µM (inactive)
same,GI50,M14,9.23 µM (inactive)
same,GI50,OVCAR-5,19.5 µM (inactive)
same,GI50,LXFL 529,2.04 µM (inactive)
same,GI50,NCI/ADR-RES,10 µM (inactive)
same,GI50,NCI-H522,0.843 µM (active)
same,GI50,DMS-273,8.69 µM (inactive)
same,GI50,SW-620,1.95 µM (inactive)
same,GI50,RXF 631,8.04 µM (inactive)
same,GI50,NCI-H23,11.4 µM (inactive)
same,GI50,BT-549,10.4 µM (inactive)
same,GI50,Hs-578T,18.9 µM (inactive)
same,GI50,SK-OV-3,20 µM (inactive)
same,GI50,RPMI-8226,2.45 µM (inactive)
same,GI50,HL-60,0.334 µM (active)
same,GI50,ACHN,1.73 µM (inactive)
same,GI50,NCI-H460,2.26 µM (inactive)
same,GI50,MDA-MB-231,12 µM (inactive)
same,GI50,SR,0.807 µM (active)
same,GI50,UACC-62,8.26 µM (inactive)
same,GI50,DMS-114,0.885 µM (active)
same,GI50,DU-145,18.5 µM (inactive)
same,GI50,T47D,1.82 µM (inactive)
same,GI50,SF-295,7.11 µM (inactive)
same,GI50,SK-MEL-2,12.1 µM (inactive)
same,GI50,HCT-15,2.17 µM
same,GI50,UO-31,9.55 µM (inactive)
same,GI50,786-0,8.53 µM (inactive)
same,GI50,NCI-H226,18.7 µM (inactive)
same,GI50,SF-268,11.2 µM (inactive)
same,GI50,SNB-78,4.11 µM (inactive)
same,GI50,MDA-N,5.53 µM (inactive)
same,GI50,KM-20L2,3.66 µM (inactive)
same,GI50,M19-MEL,3.13 µM (inactive)
same,GI50,DLD-1,1.45 µM (inactive)
same,GI50,COLO 205,1.71 µM (inactive)
same,GI50,MDA-MB-435,6.3 µM (inactive)
same,GI50,OVCAR-3,2.26 µM (inactive)
same,GI50,CCRF-CEM,0.904 µM (active)
same,GI50,OVCAR-8,6.71 µM (inactive)
same,GI50,HOP-62,16.2 µM (inactive)
same,GI50,SK-MEL-5,8.53 µM (inactive)
same,GI50,UACC-257,13.4 µM (inactive)
same,GI50,A498,17.6 µM (inactive)
same,GI50,U-251,14.7 µM (inactive)
same,GI50,LOX IMVI,2.12 µM (inactive)
same,GI50,HOP-92,2.44 µM (inactive)
same,GI50,Malme-3M,2.3 µM (inactive)
same,GI50,SK-MEL-28,13.8 µM (inactive)
same,GI50,SNB-19,16.7 µM (inactive)
same,GI50,HCT-116,1.73 µM (inactive)
same,GI50,PC-3,5.66 µM (inactive)
same,GI50,SF-539,8.15 µM (inactive)
same,GI50,HOP-18,1.86 µM (inactive)
same,GI50,OVCAR-4,0.8 µM (active)
same,GI50,IGROV-1,1.53 µM (inactive)
same,GI50,K562,1.65 µM (inactive)
same,GI50,SNB-75,8.47 µM (inactive)
same,GI50,EKVX,5.45 µM (inactive)
same,GI50,CAKI-1,0.641 µM (active)
same,GI50,KM12,2.62 µM (inactive)
same,GI50,HCC 2998,5.05 µM (inactive)
same,GI50,A549,3.73 µM (inactive)
